Here are results for 19 compounds from patent US10273236B2, “Macrocyclic factor XIa inhibitors bearing heterocyclic groups” (Bristol-Myers Squibb Company, priority 2014, dated 2019).

The conditions of series [1]: rcm bond, 12-membered ring.
For series [2], the target named is T1, purified human plasma kallikrein (Homo sapiens, UniProt P03952).
T1 construct: Plasma prekallikrein is a zymogen of a trypsin-like serine protease; purchased Enzyme Research Laboratories
In words: Plasma kallikrein inhibition assay, chromogenic substrate S-2302 (Ki). Format: biochemical. Put shortly: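 Purified human plasma kallikrein (200 pM final) with chromogenic substrate S-2302 at 0.00008-0.0004 M in 0.1 M sodium phosphate pH 7.5, 0.1-0.2 M NaCl, 0.5% PEG 8000. Velocities measured over 20-180 min with and without inhibitor; Ki derived assuming competitive inhibition, e.g. Ki=IC50/(1+S/Km).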

Series [3] concerns the target T2, purified human Factor XIa (Homo sapiens, UniProt P03951).
T2 construct: purchased Haematologic Technologies
The experiment in a line: Factor XIa inhibition assay, chromogenic substrate S-2366 (Ki). It counts as biochemical. Put shortly: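 Purified human FXIa (25-200 pM final) with S-2366 (0.0002-0.001 M) in 50 mM HEPES pH 7.4, 145 mM NaCl, 5 mM KCl, 0.1% PEG 8000. Velocities of absorbance change measured over 20-180 min with inhibitor present; Ki calculated for competitive inhibition from rates or IC50 via Ki=IC50/(1+S/Km).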

Counter-ions that a name gives are not always drawn. Like-named read-outs stand apart in the source and are kept apart here.

T2 sequence (P03951 388-625 limits assumed): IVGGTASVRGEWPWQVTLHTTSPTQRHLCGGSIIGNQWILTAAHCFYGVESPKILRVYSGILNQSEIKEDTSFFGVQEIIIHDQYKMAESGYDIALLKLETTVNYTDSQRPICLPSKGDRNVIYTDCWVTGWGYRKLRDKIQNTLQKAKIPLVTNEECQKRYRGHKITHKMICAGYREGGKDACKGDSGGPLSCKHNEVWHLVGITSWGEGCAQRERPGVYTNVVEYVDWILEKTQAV
T2 sequence (P03951 19-387 partner limits assumed): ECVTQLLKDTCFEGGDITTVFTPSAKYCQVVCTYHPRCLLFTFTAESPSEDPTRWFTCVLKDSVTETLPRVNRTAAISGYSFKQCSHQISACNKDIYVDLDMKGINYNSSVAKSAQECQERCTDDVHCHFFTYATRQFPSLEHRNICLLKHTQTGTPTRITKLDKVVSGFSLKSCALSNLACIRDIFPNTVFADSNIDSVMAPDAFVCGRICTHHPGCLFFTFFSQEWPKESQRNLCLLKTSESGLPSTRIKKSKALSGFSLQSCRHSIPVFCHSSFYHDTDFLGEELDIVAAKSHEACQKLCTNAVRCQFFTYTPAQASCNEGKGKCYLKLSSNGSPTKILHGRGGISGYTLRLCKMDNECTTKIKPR
T1 sequence (P03952 391-638 limits assumed): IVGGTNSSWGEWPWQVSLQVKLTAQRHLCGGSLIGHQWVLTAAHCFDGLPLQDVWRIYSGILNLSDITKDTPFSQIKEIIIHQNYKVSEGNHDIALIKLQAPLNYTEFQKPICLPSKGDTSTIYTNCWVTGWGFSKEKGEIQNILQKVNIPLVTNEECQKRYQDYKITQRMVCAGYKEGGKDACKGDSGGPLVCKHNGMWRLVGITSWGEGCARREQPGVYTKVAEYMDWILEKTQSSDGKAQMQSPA
T1 sequence (P03952 20-390 partner limits assumed): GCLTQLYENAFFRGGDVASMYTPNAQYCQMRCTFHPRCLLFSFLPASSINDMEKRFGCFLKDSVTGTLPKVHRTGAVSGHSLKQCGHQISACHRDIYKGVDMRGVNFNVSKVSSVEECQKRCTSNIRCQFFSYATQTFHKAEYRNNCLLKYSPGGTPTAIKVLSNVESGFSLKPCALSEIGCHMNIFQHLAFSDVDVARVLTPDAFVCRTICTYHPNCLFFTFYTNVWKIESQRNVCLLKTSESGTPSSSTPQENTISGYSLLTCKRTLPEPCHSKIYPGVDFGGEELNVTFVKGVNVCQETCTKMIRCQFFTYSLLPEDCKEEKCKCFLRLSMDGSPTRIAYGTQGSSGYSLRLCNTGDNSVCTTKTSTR

Consider `C[C@@H]1/C=C/C[C@H](NC(=O)OC(C)(C)C)c2cc(ccn2)-c2c(cnn2C(F)F)NC1=O`, for which the ring closure, isolated yield in series [1] (from C=CC[C@H](NC(=O)OC(C)(C)C)c1cc(-c2c(NC(=O)[C@H](C)C=C)cnn2C(F)F)ccn1, Grubbs II (25 mol%), EtOAc, 5.0 mM) came out at 76%.

`C[C@@H]1/C=C/C[C@H](NC(=O)OC(C)(C)C)c2cc(ccn2)-c2c(cnn2C)NC1=O`: the ring closure, isolated yield in series [1] (from C=CC[C@H](NC(=O)OC(C)(C)C)c1cc(-c2c(NC(=O)[C@H](C)C=C)cnn2C)ccn1, Grubbs II (40 mol%), DCE, 78.3 mM, 120.0 °C) was 20%.

`C[C@@H]1/C=C/C[C@H](NC(=O)OC(C)(C)C)c2cccc(n2)-c2c(cnn2C)NC1=O` had a ring closure, isolated yield in series [1] (from C=CC[C@H](NC(=O)OC(C)(C)C)c1cccc(-c2c(NC(=O)[C@H](C)C=C)cnn2C)n1, Grubbs II (40 mol%), EtOAc, 13.2 mM, 80.0 °C) of 66%.

For orientation: Ki means the dissociation constant of the complex between target and ligand, obtained from inhibition or displacement. A low value points to tighter binding. Consider `C[C@@H]1CCC[C@H](N2CCC(c3c(C(F)(F)F)ccc(Cl)c3F)=CC2=O)c2cccc(c2)-c2c(cnn2C)NC1=O` [Example 49, (9R,13S)-13-{4-[3-chloro-2-fluoro-6-(trifluoromethyl)phenyl]-6-oxo-1,2,3,6-tetrahydropyridin-1-yl}-3,9-dimethyl-3,4,7-triazatricyclo[12.3.1.0^2,6]octadeca-1(18),2(6),4,14,16-pentaen-8-one], for which the Ki in series [2] worked out at 69 nM; in series [3], 3.2 nM.

Regarding `C[C@H]1C(=O)Nc2cnn(C)c2-c2cc(F)cc(c2)[C@@H](N2CCC(c3cc(Cl)ccc3-n3cc(Cl)nn3)=CC2=O)CCC1F` (stereo partly drawn) [Example 50, (9S,13S)-13-{4-[5-chloro-2-(4-chloro-1H-1,2,3-triazol-1-yl)phenyl]-6-oxo-1,2,3,6-tetrahydropyridin-1-yl}-10,16-difluoro-3,9-dimethyl-3,4,7-triazatricyclo[12.3.1.0^2,6]octadeca-1(18),2(6),4,14,16-pentaen-8-one], the Ki was found to be 8 nM in series [2] and 0.1 nM in series [3].

For `[2H]C([2H])([2H])n1ncc2c1-c1cccc(c1)[C@@H](N1CCC(c3cc(Cl)ccc3-n3cc(Cl)nn3)=CC1=O)CCC[C@@H](C)C(=O)N2` [Example 51, (9R,13S)-13-{4-[5-chloro-2-(4-chloro-1H-1,2,3-triazol-1-yl)phenyl]-6-oxo-1,2,3,6-tetrahydropyridin-1-yl}-3-(^2H3)methyl-9-methyl-3,4,7-triazatricyclo[12.3.1.0^2,6]octadeca-1(18),2(6),4,14,16-pentaen-8-one], the values for the Ki in series [2] and in series [3] were 5 nM and 0.18 nM, respectively.

With `C[C@@H]1CCC[C@H](N2CCC(c3cc(Cl)ccc3-n3cc(Cl)nn3)=CC2=O)c2cc(ccn2)-c2c(cnn2CC(F)F)NC1=O` [Example 52, (9R,13S)-13-{4-[5-chloro-2-(4-chloro-1H-1,2,3-triazol-1-yl)phenyl]-6-oxo-1,2,3,6-tetrahydropyridin-1-yl}-3-(2,2-difluoroethyl)-9-methyl-3,4,7,15-tetraazatricyclo[12.3.1.0^2,6]octadeca-1(18),2(6),4,14,16-pentaen-8-one], the Ki in series [2] was 22 nM; in series [3], 0.76 nM.

With `C[C@@H]1CCC[C@H](N2CCC(c3cc(Cl)ccc3-n3ccnn3)=CC2=O)c2cc(ccn2)-c2c(cnn2C(F)F)NC1=O` [Example 53, (9R)-13-{4-[5-chloro-2-(1H-1,2,3-triazol-1-yl)phenyl]-6-oxo-1,2,3,6-tetrahydropyridin-1-yl}-3-(difluoromethyl)-9-methyl-3,4,7,15-tetraazatricyclo[12.3.1.0^2,6]octadeca-1(18),2(6),4,14,16-pentaen-8-one], the values for the Ki in series [2] and in series [3] were 37 nM and 0.87 nM, respectively.

For the compound `C[C@@H]1CCC[C@H](N2CCC(c3cc(Cl)ccc3-n3ccnn3)=CC2=O)c2cc(ccn2)-c2c(cnn2C2CCC2)NC1=O` [Example 54, (9R,13S)-13-{4-[5-chloro-2-(1H-1,2,3-triazol-1-yl)phenyl]-6-oxo-1,2,3,6-tetrahydropyridin-1-yl}-3-cyclobutyl-9-methyl-3,4,7,15-tetraazatricyclo[12.3.1.0^2,6]octadeca-1(18),2(6),4,14,16-pentaen-8-one], the Ki in series [2] stood at 150 nM; in series [3], 7.1 nM.

As to `C[C@@H]1CCC[C@H](N2CCC(c3cc(Cl)ccc3-n3cc(Cl)nn3)=CC2=O)c2cc(ccn2)-c2c(cnn2C(F)F)NC1=O` [Example 55, (9R,13S)-13-{4-[5-chloro-2-(4-chloro-1H-1,2,3-triazol-1-yl)phenyl]-6-oxo-1,2,3,6-tetrahydropyridin-1-yl}-3-(difluoromethyl)-9-methyl-3,4,7,15-tetraazatricyclo[12.3.1.0^2,6]octadeca-1(18),2(6),4,14,16-pentaen-8-one], the Ki in series [2] is 6 nM; in series [3], 0.1 nM.

Turning to `C[C@@H]1CCC[C@H](N2CCC(c3cc(Cl)ccc3-n3cc(Cl)nn3)=CC2=O)c2cc(ccn2)-c2c(cnn2C2CC2(F)F)NC1=O` (stereo partly drawn) [Example 56, (9R,13S)-13-{4-[5-chloro-2-(4-chloro-1H-1,2,3-triazol-1-yl)phenyl]-6-oxo-1,2,3,6-tetrahydropyridin-1-yl}-3-(2,2-difluorocyclopropyl)-9-methyl-3,4,7,15-tetraazatricyclo[12.3.1.0^2,6]octadeca-1(18),2(6),4,14,16-pentaen-8-one], the Ki in series [2] stood at 30 nM; in series [3], 0.36 nM.

As to `C[C@@H]1CCC[C@H](N2CCC(c3cc(Cl)ccc3C#N)=CC2=O)c2cc(ccn2)-c2c(cnn2C)NC1=O` [Example 57, 4-chloro-2-{1-[(9R,13S)-3,9-dimethyl-8-oxo-3,4,7,15-tetraazatricyclo[12.3.1.0^2,6]octadeca-1(18),2(6),4,14,16-pentaen-13-yl]-6-oxo-1,2,3,6-tetrahydropyridin-4-yl}benzonitrile], the Ki came out at 14 nM in series [2] and 4 nM in series [3].

Turning to `C[C@@H]1CCC[C@H](N2CCC(c3cc(Cl)ccc3-n3cc(Cl)nn3)=CC2=O)c2cc(ccn2)-c2[nH]ncc2NC1=O` [Example 58, (9R,13S)-13-{4-[5-chloro-2-(4-chloro-1H-1,2,3-triazol-1-yl)phenyl]-6-oxo-1,2,3,6-tetrahydropyridin-1-yl}-9-methyl-3,4,7,15-tetraazatricyclo[12.3.1.0^2,6]octadeca-1(18),2(6),4,14,16-pentaen-8-one], the inhibition constant (Ki) was determined as 46 nM in series [2] and 2.4 nM in series [3].

In the case of `C[C@@H]1CCC[C@H](N2CCC(c3cc(Cl)ccc3-n3cc(Cl)nn3)=CC2=O)c2cc(F)cc(c2)-c2c(cnn2C)NC1=O` [Example 59, (9R,13S)-13-{4-[5-chloro-2-(4-chloro-1H-1,2,3-triazol-1-yl)phenyl]-6-oxo-1,2,3,6-tetrahydropyridin-1-yl}-16-fluoro-3,9-dimethyl-3,4,7-triazatricyclo[12.3.1.0^2,6]octadeca-1(18),2(6),4,14,16-pentaen-8-one], the Ki in series [2] was found to be 4 nM; in series [3], 0.1 nM.

Consider `C[C@@H]1CCC[C@H](N2CCC(c3c(C(F)(F)F)ccc(Cl)c3F)=CC2=O)c2cc(ccn2)-c2c(cnn2C2CC2)NC1=O` [Example 60, (9R,13S)-13-{4-[3-chloro-2-fluoro-6-(trifluoromethyl)phenyl]-6-oxo-1,2,3,6-tetrahydropyridin-1-yl}-3-cyclopropyl-9-methyl-3,4,7,15-tetraazatricyclo[12.3.1.0^2,6]octadeca-1(18),2(6),4,14,16-pentaen-8-one], for which the results for the inhibition constant (Ki) in series [2] and in series [3] were 22 nM and 7.2 nM, respectively.

On to `C[C@@H]1CCC[C@H](n2ncc(-c3cc(Cl)ccc3-n3cc(C(F)(F)F)nn3)cc2=O)c2cc(ccn2)-c2c(cnn2C)NC1=O` [Example 61, (9R,13S)-13-(4-{5-chloro-2-[4-(trifluoromethyl)-1H-1,2,3-triazol-1-yl]phenyl}-6-oxo-1,6-dihydropyridazin-1-yl)-3,9-dimethyl-3,4,7,15-tetraazatricyclo[12.3.1.02,6]octadeca-1(18),2(6),4,14,16-pentaen-8-one trifluoroacetate], for which the Ki in series [2] was 66 nM; in series [3], 0.51 nM.

Take `[2H]C([2H])([2H])n1ncc2c1-c1ccnc(c1)[C@@H](n1ccc(-c3cc(Cl)ccc3-n3cc(C(F)(F)F)nn3)cc1=O)CCC[C@@H](C)C(=O)N2` [Example 62, (9R,13S)-13-(4-{5-Chloro-2-[4-(trifluoromethyl)-1H-1,2,3-triazol-1-yl]phenyl}-2-oxo-1,2-dihydropyridin-1-yl)-3-(^2H3)methyl-9-methyl-3,4,7,15-tetraazatricyclo[12.3.1.0^2,6]octadeca-1(18),2(6),4,14,16-pentaen-8-one, trifluoroacetate]: the figures for the Ki in series [2] and in series [3] were 6 nM and 0.1 nM, respectively.

Take `[2H]C([2H])([2H])n1ncc2c1-c1ccnc(c1)[C@@H](n1ncc(-c3cc(Cl)ccc3-n3cc(C(F)(F)F)nn3)cc1=O)CCC[C@@H](C)C(=O)N2` [Example 63, (9R,13S)-13-(4-{5-Chloro-2-[4-(trifluoromethyl)-1H-1,2,3-triazol-1-yl]phenyl}-6-oxo-1,6-dihydropyridazin-1-yl)-3-(^2H3)methyl-9-methyl-3,4,7,15-tetraazatricyclo[12.3.1.0^2,6]octadeca-1(18),2(6),4,14,16-pentaen-8-one trifluoroacetate]: the figures for the Ki in series [2] and in series [3] were 77 nM and 0.52 nM, respectively.

With `[2H]C([2H])([2H])n1ncc2c1-c1cc(ccn1)[C@@H](n1ncc(-c3cc(Cl)ccc3-n3cc(C(F)(F)F)nn3)cc1=O)CCC[C@@H](C)C(=O)N2` [Example 64, (9R,13S)-13-(4-{5-Chloro-2-[4-(trifluoromethyl)-1H-1,2,3-triazol-1-yl]phenyl}-6-oxo-1,6-dihydropyridazin-1-yl)-3-(^2H3)methyl-9-methyl-3,4,7,17-tetraazatricyclo[12.3.1.0^2,6]octadeca-1(18),2(6),4,14,16-pentaen-8-one], the Ki worked out at 52.6 nM in series [2] and 0.71 nM in series [3].
